Assay results taken from EP0650721B1 (HANMI PHARM. IND. CO., LTD., priority 1993, dated 1995).

Test: Membrane permeation property of the cosurfactant in soft capsules over storage at room temperature (cosurfactant content by gas chromatography)
Type: physicochemical
Details: after 50 days
Experimental: The content of the cosurfactant in each soft capsule preparation was analyzed by gas chromatography. The components and their constitutional ratios in the compositions used in this experiment are given in the following Table 1 and the experiment results are given in the following Table 2.

CO[C@H]1CO[C@H]2[C@@H]1OC[C@H]2OC [dimethylisosorbide, 1,4:3,6-dianhydro-2,5-dimethyl-D-glucitol]
change in content of the cosurfactant in the soft capsule: does not change in its content even after 50 days
